Results from US11744844B2, “Selective estrogen receptor degraders” (Eli Lilly and Company, priority 2021, dated 2023).
Where a name gives a salt, the structure may show the parent alone.

Legend:
[1] = target: T1, Y537N mutant ERα receptor (Homo sapiens, UniProt P03372, Y537N); experiment: PRα inhibition (ERα functional antagonism) cell assay in MCF7-ESR1 Y537N 682 CRISPR cells; format: cell-based; conditions: MCF7 Y537N 682 CRISPR cells (heterozygous mutant), 72 hours; read-out: Relative IC50, PRα inhibition (ERα functional antagonism)
T1 construct: generated by CRISPR/Cas9 gene editing of ESR1 gene in MCF7 cells, clone #682; endogenous in cells; host or cells: MCF7-ESR1 Y537N-682 (CRISPR/Cas9-edited MCF7, clone #682)
T1 sequence (P03372 1-595 Y537N): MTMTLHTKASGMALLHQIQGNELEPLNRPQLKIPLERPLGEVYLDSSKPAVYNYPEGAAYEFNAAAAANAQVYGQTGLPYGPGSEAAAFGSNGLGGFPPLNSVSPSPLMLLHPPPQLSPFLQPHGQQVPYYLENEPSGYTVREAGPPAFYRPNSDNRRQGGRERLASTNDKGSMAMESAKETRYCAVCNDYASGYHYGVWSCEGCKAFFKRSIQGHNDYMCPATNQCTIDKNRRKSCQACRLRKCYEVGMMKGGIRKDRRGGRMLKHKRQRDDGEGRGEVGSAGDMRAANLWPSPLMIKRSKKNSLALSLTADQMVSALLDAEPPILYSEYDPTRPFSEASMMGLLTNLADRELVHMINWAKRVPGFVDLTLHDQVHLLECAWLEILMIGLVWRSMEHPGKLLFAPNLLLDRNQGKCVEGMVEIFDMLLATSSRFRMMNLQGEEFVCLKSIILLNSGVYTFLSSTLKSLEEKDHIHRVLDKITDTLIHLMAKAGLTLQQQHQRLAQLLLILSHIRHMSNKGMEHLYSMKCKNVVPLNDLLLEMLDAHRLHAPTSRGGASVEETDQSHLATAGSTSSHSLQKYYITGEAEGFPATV
Excerpt: The purpose of the following PRα inhibition (ERα functional antagonism) cell assay is to determine the antagonistic activity of a test compound against the Y537N mutant ERα receptor. An antagonist in this assay is expected to block the function of the ERα receptor.
Culture MCF7-ESR1 Y537N-682 (generated by CRISPR/Cas9 gene editing of ESR1 gene in MCF7 cells, clone #682) in DMEM media supplemented with 10% FBS and 1% penicillin/streptomycin antibiotics and plate the cells (prior to becoming 70% confluent) in 384-well flat-bottom plates at a density of 4,000 cells per well in DMEM phenol red free media 10% FBS (20 μL volume) (charcoal stripped). Incubate the cells overnight in a cell culture incubator (5% CO2, 95% relative humidity and 37° C.) and allow the cells to attach to the plate. The following day dose the cells with the test compound. Use an Echo 555 acoustic dispenser to prepare compound serial dilutions (1:3) in a range from 6 μM to 0.0003 μM. […]
The following day wash the cells with PBS […] (2×20 μL) and incubate with secondary antibody (20 μL/well) (1:1000 dilution, Goat anti-rabbit IgM ALEXA FLUOR™ 488) in PBS 1% BSA for 105 minutes at room temperature. […] Scan the plates with ACUMEN EXPLORER™ [Laser-scanning fluorescence microplate cytometer manufactured by TTP LABTECH LTD] to measure PRα. […]

[2] = tested on: MCF7 ESR1 Y537N mutant cells; experiment: Cell proliferation assay in MCF7-ESR1 Y537N-682; format: cell-based; conditions: Homo sapiens, 168 h; MCF7-ESR1 Y537N-682, seven days; read-out: Relative IC50 MCF7 ESR1 Y537N mutant cells, cell proliferation
Method: The purpose of the following cell proliferation assays generally is to detect whether a test compound has effects on cell proliferation.
Seed MCF7 (purchased from ATCC HTB-22) cells at a density of 2,000 cells per well in DMEM phenol red free media 10% FBS (20 μL volume) (charcoal stripped) into a clear bottom 384-well cell culture plate. Plate MCF7-ESRY537N-682 (generated by CRISPR/Cas9 gene editing of ESr1 gene in MCF7 cells, clone #682) in DMEM media supplemented with 10% FBS, and 1% penicillin/streptomycin antibiotics at a density of 1000 cells per well. Incubate the plates at 37° C. and 5% CO2. The following day dose the cells with the test compound. Use an Echo 555 acoustic dispenser to prepare test compound serial dilutions (1:3) in a range from 60 μM to 0.003 μM. Dose the cells with the addition of 5 μL from the serial dilution plate to the cell plate, producing a final DMSO concentration of 0.2% with a final test compound concentration dose range between 20 and 0.001 μM. For the maximum point use media containing 0.2% of DMSO and for the minimum point use fulvestrant diluted at 2 μM final concentrations in the growth media containing 0.2% DMSO. After dosing with the test compound, incubate the cell plates at 37° C. and 5% CO2. […] Scan the plates with ACUMEN EXPLORER™ (Laser-scanning fluorescence microplate cytometer manufactured by TTP LABTECH LTD).

Structure (SMILES)	IC50 [1]	IC50 [2]
O=S(=O)(O)Oc1ccc2c3c(cnc2c1)-c1ccc(C(F)(F)F)cc1O[C@@H]3c1ccc(OCCN2CC(CF)C2)cc1 [Example 1, [(5R)-5-[4-[2-[3-(Fluoromethyl)azetidin-1-yl]ethoxy]phenyl]-8-(trifluoromethyl)-5H-chromeno[4,3-c]quinolin-2-yl]hydrogen sulfate]	330 ± 116 nM	702 ± 389 nM
O=C(O)[C@H]1O[C@@H](Oc2ccc3c4c(cnc3c2)-c2ccc(C(F)(F)F)cc2O[C@@H]4c2ccc(OCCN3CC(CF)C3)cc2)[C@H](O)[C@@H](O)[C@@H]1O [Example 2, (2S,3S,4S,5R,6S)-6-[[(5R)-5-[4-[2-[3-(Fluoromethyl)azetidin-1-yl]ethoxy]phenyl]-8-(trifluoromethyl)-5H-chromeno[4,3-c]quinolin-2-yl]oxy]-3,4,5-trihydroxy-tetrahydropyran-2-carboxylic acid]	470 ± 58 nM	1500 ± 966 nM
